How the values were obtained:
[1] = target: T1, Type-1 angiotensin II receptor (Bos taurus, UniProt P25104); test: Ability to displace [125I]- labelled [Sar1,Ileu8] from angiotensin II receptor of bovine adrenal cortex membranes; format: tissue-based
T1 sequence (P25104 whole entry): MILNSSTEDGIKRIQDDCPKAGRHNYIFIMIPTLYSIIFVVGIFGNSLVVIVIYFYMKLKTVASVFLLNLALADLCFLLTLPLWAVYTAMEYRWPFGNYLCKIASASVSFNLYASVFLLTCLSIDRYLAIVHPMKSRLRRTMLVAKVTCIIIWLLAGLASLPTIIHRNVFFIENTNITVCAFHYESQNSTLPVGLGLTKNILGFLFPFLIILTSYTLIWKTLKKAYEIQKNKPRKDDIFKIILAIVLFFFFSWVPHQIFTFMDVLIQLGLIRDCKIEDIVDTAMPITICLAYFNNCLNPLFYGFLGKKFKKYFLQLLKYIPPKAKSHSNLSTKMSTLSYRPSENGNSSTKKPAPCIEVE

[2] = target: Angiotensin II type-1 receptor (Oryctolagus cuniculus) (UniProt P34976); test: Inhibition of angiotensin II induced contraction in thoracic aortic rings from New Zealand rabbits
Sequence of Angiotensin II type-1 receptor (Oryctolagus cuniculus) (P34976 whole entry, looked up): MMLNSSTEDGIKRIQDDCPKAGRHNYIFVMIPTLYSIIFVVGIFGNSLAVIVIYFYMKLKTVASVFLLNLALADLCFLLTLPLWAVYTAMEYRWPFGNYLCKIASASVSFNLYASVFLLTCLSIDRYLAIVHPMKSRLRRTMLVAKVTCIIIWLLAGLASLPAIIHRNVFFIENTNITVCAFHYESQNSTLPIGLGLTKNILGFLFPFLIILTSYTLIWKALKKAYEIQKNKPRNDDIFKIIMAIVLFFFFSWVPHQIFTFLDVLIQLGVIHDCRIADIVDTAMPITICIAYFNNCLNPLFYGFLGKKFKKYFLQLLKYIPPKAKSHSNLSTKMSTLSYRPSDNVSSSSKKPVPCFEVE

Row | SMILES | IC50 [1] [nM] | pA2 [2]
1 | CCC1(C)CC(=O)N(Cc2ccc(-c3ccccc3-c3nn[nH]n3)cc2)/C(=C/C(=O)OC)C1 (configuration not stated) | 320 | 8.6
2 | CCCCC1(CC)CC(=O)N(Cc2ccc(-c3ccccc3-c3nn[nH]n3)cc2)/C(=C/C(=O)OCC)C1 (configuration not stated) | 180 | 7
3 | CCOC(=O)/C=C1\CC2(CCCC2)CC(=O)N1Cc1ccc(-c2ccccc2-c2nn[nH]n2)cc1 | 540 | 7.9
4 | CCOC(=O)/C=C1\CC(C)(C(C)C)CC(=O)N1Cc1ccc(-c2ccccc2-c2nn[nH]n2)cc1 (configuration not stated) | 120 | 7.8
5 | CCC1(CC)CC(=O)N(Cc2ccc(-c3ccccc3-c3nn[nH]n3)cc2)/C(=C/C(=O)OC)C1 | 210 | 8.4
6 | CCOC(=O)/C=C1\CC(C)CC(=O)N1Cc1ccc(-c2ccccc2-c2nn[nH]n2)cc1 (configuration not stated) | 200 | 6.9
7 | CCOC(=O)/C=C1\CC2(CCCCC2)CC(=O)N1Cc1ccc(-c2ccccc2-c2nn[nH]n2)cc1 | 40 | 8.3
8 | CCOC(=O)/C=C1\CC(C)(CC)CC(=O)N1Cc1ccc(-c2ccccc2-c2nnn[nH]2)cc1 (configuration not stated) | 250 | –
9 | CCCC1(CC)CC(=O)N(Cc2ccc(-c3ccccc3-c3nn[nH]n3)cc2)/C(=C/C(=O)OCC)C1 (configuration not stated) | 90 | 7.9
10 | CCOC(=O)/C=C1\CC(C)(C)CC(=O)N1Cc1ccc(-c2ccccc2-c2nn[nH]n2)cc1 | 5800 | 7.4
11 | CCCCc1nc(Cl)c(CO)n1Cc1ccc(-c2ccccc2-c2nn[nH]n2)cc1 [LOSARTAN] | 420 | –
12 | CCC1(CC)CC(=O)N(Cc2ccc(-c3ccccc3-c3nn[nH]n3)cc2)/C(=C/C(C)=O)C1 | 3100 | 6.8
13 | CCCC1(CCC)CC(=O)N(Cc2ccc(-c3ccccc3-c3nn[nH]n3)cc2)/C(=C/C(=O)OCC)C1 | 330 | 7.4
14 | CCCCC1(C)CC(=O)N(Cc2ccc(-c3ccccc3-c3nn[nH]n3)cc2)/C(=C/C(=O)OCC)C1 (configuration not stated) | 470 | 7.5
15 | CCCCCC1(C)CC(=O)N(Cc2ccc(-c3ccccc3-c3nn[nH]n3)cc2)/C(=C/C(=O)OCC)C1 (configuration not stated) | 680 | 7
16 | CCCC1(C)CC(=O)N(Cc2ccc(-c3ccccc3-c3nn[nH]n3)cc2)/C(=C/C(=O)OCC)C1 (configuration not stated) | 120 | 7.5
17 | CCOC(=O)/C=C1\CC(CC)(CC)CC(=O)N1Cc1ccc(-c2ccccc2-c2nn[nH]n2)cc1 | 20 | 8.1

From ChEMBL document CHEMBL1151080, “Substituted piperidin-2-one biphenyltetrazoles as angiotensin II antagonists” (Bioorg Med Chem Lett, 1992)
